Data taken from US20250034110A1, “LPAR1 ANTAGONISTS AND USES THEREOF” (Pipeline Therapeutics, Inc., priority 2021, published 2025).

Target: human LPAR1 (Homo sapiens, UniProt Q92633)
Test: In vitro functional assay of lysophosphatidic acid receptor 1 activity (calcium flux)
Format: cell-based
Settings: B103 cells stably expressing human LPAR1; calcium flux (Fluo-4 NW) after lysophosphatidic acid (18:1) at EC80; 100 pM to 10 μM; read-out: LPAR1 IC50

Sequence of human LPAR1 (Q92633 whole entry): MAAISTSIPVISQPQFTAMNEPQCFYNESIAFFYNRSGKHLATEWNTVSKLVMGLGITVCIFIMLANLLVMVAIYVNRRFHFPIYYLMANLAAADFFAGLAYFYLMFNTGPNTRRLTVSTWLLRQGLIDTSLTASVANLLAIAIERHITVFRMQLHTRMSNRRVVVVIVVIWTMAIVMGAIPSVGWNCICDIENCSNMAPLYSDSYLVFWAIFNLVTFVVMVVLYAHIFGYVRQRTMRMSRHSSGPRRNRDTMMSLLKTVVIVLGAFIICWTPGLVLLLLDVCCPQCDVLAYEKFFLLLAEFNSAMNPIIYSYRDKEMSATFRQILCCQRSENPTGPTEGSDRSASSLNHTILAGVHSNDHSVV

Row | IC50 | Structure (SMILES)
1 | < 10 nM | COc1ccc(NC(=O)N(c2ccccc2C(C)C)[C@H]2CC[C@@H](S(C)(=O)=O)CC2)c(OC(F)F)n1 [Example 257, 3-(2-(difluoromethoxy)-6-methoxypyridin-3-yl)-1-(2-isopropylphenyl)-1-((1s,4s)-4-(methylsulfonyl)cyclohexyl)urea]
2 | 100 to 1000 nM | COc1ccc(NC(=O)N(c2ccccc2C(C)C)[C@H]2CC[C@H](S(C)(=O)=O)CC2)c(OC(F)F)n1 [Example 258, 3-(2-(difluoromethoxy)-6-methoxypyridin-3-yl)-1-(2-isopropylphenyl)-1-((1r,4r)-4-(methylsulfonyl)cyclohexyl)urea]
3 | 10 to 100 nM | CC(C)Oc1ccc(NC(=O)N(c2ccccc2C(C)C)[C@H]2CC[C@H](C(=O)O)CC2)c(OCC(F)F)n1 [Example 259, (1r,4r)-4-(3-(2-(2,2-difluoroethoxy)-6-isopropoxypyridin-3-yl)-1-(2-isopropylphenyl)ureido)cyclohexane-1-carboxylic acid]
4 | > 1000 nM | Cc1ccc(NC(=O)N(c2ccccc2C(C)C)[C@H]2CC[C@@H](c3cccnc3)CC2)c(OC(F)F)n1 [Example 260, 3-(2-(difluoromethoxy)-6-methylpyridin-3-yl)-1-(2-isopropylphenyl)-1-((1s,4s)-4-(pyridin-3-yl)cyclohexyl)urea]
5 | 100 to 1000 nM | Cc1ccc(NC(=O)N(c2ccccc2C(C)C)[C@H]2CC[C@H](c3cccnc3)CC2)c(OC(F)F)n1 [Example 261, 3-(2-(difluoromethoxy)-6-methylpyridin-3-yl)-1-(2-isopropylphenyl)-1-((1r,4r)-4-(pyridin-3-yl)cyclohexyl)urea]
6 | < 10 nM | [2H]C([2H])([2H])Oc1ccc(NC(=O)N(c2ccccc2C(C([2H])([2H])[2H])C([2H])([2H])[2H])[C@H]2CC[C@H](C(=O)O)CC2)c(OC(F)F)n1 [Example 262]
7 | 100 to 1000 nM | CC(=O)N(C(C)=O)[C@H]1CC[C@@H](N(C(=O)Nc2ccc(C)nc2OC(F)F)c2ccccc2C(C)C)CC1 [Example 264, N-acetyl-N-((1s,4s)-4-(3-(2-(difluoromethoxy)-6-methylpyridin-3-yl)-1-(2-isopropylphenyl)ureido)-cyclohexyl)acetamide]
8 | > 1000 nM | CC(=O)N(C(C)=O)[C@H]1CC[C@H](N(C(=O)Nc2ccc(C)nc2OC(F)F)c2ccccc2C(C)C)CC1 [Example 265, N-acetyl-N-((1r,4r)-4-(3-(2-(difluoromethoxy)-6-methylpyridin-3-yl)-1-(2-isopropylphenyl)ureido)-cyclohexyl)acetamide]
9 | 100 to 1000 nM | CC(=O)N[C@H]1CC[C@@H](N(C(=O)Nc2ccc(C)nc2OC(F)F)c2ccccc2C(C)C)CC1 [Example 266, N-((1s,4s)-4-(3-(2-(difluoromethoxy)-6-methylpyridin-3-yl)-1-(2-isopropylphenyl)ureido)cyclohexyl)acetamide]
10 | 10 to 100 nM | CC(=O)N[C@H]1CC[C@H](N(C(=O)Nc2ccc(C)nc2OC(F)F)c2ccccc2C(C)C)CC1 [Example 267, N-((1r,4r)-4-(3-(2-(difluoromethoxy)-6-methylpyridin-3-yl)-1-(2-isopropylphenyl)ureido)cyclohexyl)acetamide]
11 | 100 to 1000 nM | Cc1ccc(NC(=O)N(c2ccccc2C(C)C)C2CCC(NC(=O)c3nccs3)CC2)c(OC(F)F)n1 (stereo not shown) [Example 268, N-(4-(3-(2-(difluoromethoxy)-6-methylpyridin-3-yl)-1-(2-isopropylphenyl)ureido)cyclohexyl)thiazole-2-carboxamide]
12 | 10 to 100 nM | Cc1ccc(NC(=O)N(c2ccccc2C(C)C)C2CCC(NS(C)(=O)=O)CC2)c(OC(F)F)n1 (stereo not shown) [Example 269, N-(4-(3-(2-(difluoromethoxy)-6-methylpyridin-3-yl)-1-(2-isopropylphenyl)ureido)cyclohexyl)methanesulfonamide]
13 | 100 to 1000 nM | CC(=O)NC1CC(N(C(=O)Nc2ccc(C)nc2OC(F)F)c2ccccc2C(C)C)C1 (stereo not shown) [Example 271, N-(3-(3-(2-(difluoromethoxy)-6-methylpyridin-3-yl)-1-(2-isopropylphenyl)ureido)cyclobutyl)acetamide]
14 | 10 to 100 nM | Cc1ccc(NC(=O)N(c2ccccc2C(C)C)C2CC(NS(C)(=O)=O)C2)c(OC(F)F)n1 (stereo not shown) [Example 272, N-(3-(3-(2-(difluoromethoxy)-6-methylpyridin-3-yl)-1-(2-isopropylphenyl)ureido)cyclobutyl)methanesulfonamide]
15 | 10 to 100 nM | CC(C)(C)c1ccccc1N(C(=O)Nc1ncc(Br)cc1OC(F)F)C1CCC(C(=O)O)CC1 (stereo not shown) [Example 273]
16 | 100 to 1000 nM | COc1ccc(NC(=O)N(c2ccccc2C2CC2)[C@H]2CC[C@@H](C(=O)O)CC2)c(OC(F)F)n1 [Example 274]
17 | 10 to 100 nM | COc1ccc(NC(=O)N(c2ccccc2C2CC2)[C@H]2CC[C@H](C(=O)O)CC2)c(OC(F)F)n1 [Example 275]
18 | 100 to 1000 nM | COc1ccc(NC(=O)N(c2ccccc2C(C)C)C2CCC(=O)CC2)c(OC(F)F)n1 [Example 276, 3-(2-(difluoromethoxy)-6-methoxypyridin-3-yl)-1-(2-isopropylphenyl)-1-(4-oxocyclohexyl)urea]
19 | 10 to 100 nM | COc1ccc(NC(=O)N(c2ccccc2C(C)(C)F)[C@H]2CC[C@H](C(=O)O)CC2)c(OC(F)F)n1 [Example 278, (1r,4r)-4-(3-(2-(difluoromethoxy)-6-methoxypyridin-3-yl)-1-(2-(2-fluoropropan-2-yl)phenyl)ureido)cyclohexane-1-carboxylic acid]

Row | IC50 | Structure (SMILES)
20 | < 10 nM | COc1ccc(NC(=O)N(c2ccccc2C(C)C)[C@H]2CC[C@H](C(=O)NS(C)(=O)=O)CC2)c(OC(F)F)n1 [Example 279, (1r,4r)-4-(3-(2-(difluoromethoxy)-6-methoxypyridin-3-yl)-1-(2-isopropylphenyl)ureido)-N-(methylsulfonyl)cyclohexane-1-carboxamide]
21 | < 10 nM | C#CCCS(=O)(=O)NC(=O)[C@H]1CC[C@H](N(C(=O)Nc2ccc(OC)nc2OC(F)F)c2ccccc2C(C)C)CC1 [Example 280]
22 | 10 to 100 nM | COc1ccc(NC(=O)N(c2ccccc2C(C)C)[C@H]2CC[C@H](C(=O)NO)CC2)c(OC(F)F)n1 [Example 281]
23 | 100 to 1000 nM | COc1ccc(NC(=O)N(c2ccccc2C(C)CO)[C@H]2CC[C@H](C(=O)O)CC2)c(OC(F)F)n1 (stereo partly drawn) [Example 282, (1r,4r)-4-(3-(2-(difluoromethoxy)-6-methoxypyridin-3-yl)-l-(2-(1-hydroxypropan-2-yl)phenyl)ureido)cyclohexane-1-carboxylic acid]
24 | 10 to 100 nM | COc1ccc(NC(=O)N(c2ccccc2C(C)C)[C@H]2CC[C@H](c3cc(O)no3)CC2)c(OC(F)F)n1 [Example 283, 3-(2-(difluoromethoxy)-6-methoxypyridin-3-yl)-1-((1r,4r)-4-(3-hydroxyisoxazol-5-yl)cyclohexyl)-1-(2-isopropylphenyl)urea]
25 | < 10 nM | Cc1ccc(NC(=O)N(c2ccccc2C(C)C)[C@H]2CCC[C@@H](C(=O)O)C2)c(OC(F)F)n1 [Example 285]
26 | 10 to 100 nM | COc1ccc(NC(=O)N(c2ccccc2C(C)C)[C@@H]2CCC[C@H](C(=O)O)C2)c(OC(F)F)n1 [Example 286]
27 | 100 to 1000 nM | Cc1ccc(NC(=O)N(c2ccccc2C(C)C)[C@@H]2CCC[C@H](C(=O)O)C2)c(OC(F)F)n1 [Example 287]
28 | 10 to 100 nM | COc1ccc(NC(=O)N(c2ccccc2C(C)C)[C@H]2CC[C@H](C(=O)O)CC2)c(OC)n1 [Example 288, (1r,4r)-4-(3-(2,6-dimethoxypyridin-3-yl)-1-(2-isopropylphenyl)ureido)cyclohexane-1-carboxylic acid]
29 | < 10 nM | COc1ccc(NC(=O)N(c2ccccc2C(C)C)[C@H]2CC[C@H](C(=O)O)CC2)c(OCC(F)F)n1 [Example 289, (1r,4r)-4-(3-(2-(2,2-difluoroethoxy)-6-methoxypyridin-3-yl)-1-(2-isopropylphenyl)ureido)cyclohexane-1-carboxylic acid]
30 | 100 to 1000 nM | COc1cc(C(F)F)ncc1NC(=O)N(c1ccccc1C(C)C)[C@H]1CC[C@H](C(=O)O)CC1 [Example 294, (1r,4r)-4-(3-(6-(difluoromethyl)-4-methoxypyridin-3-yl)-1-(2-isopropylphenyl)ureido)cyclohexane-1-carboxylic acid]
31 | 100 to 1000 nM | CC(C)Oc1cc(C(F)F)ncc1NC(=O)N(c1ccccc1C(C)C)[C@H]1CC[C@H](C(=O)O)CC1 [Example 295, (1r,4r)-4-(3-(6-(difluoromethyl)-4-isopropoxypyridin-3-yl)-1-(2-isopropylphenyl)ureido)cyclohexane-1-carboxylic acid]
32 | 100 to 1000 nM | [2H]C([2H])([2H])Oc1cc(C(F)F)ncc1NC(=O)N(c1ccccc1C(C)C)[C@H]1CC[C@H](C(=O)O)CC1 [Example 296, (1r,4r)-4-(3-(6-(difluoromethyl)-4-(methoxy-d3)pyridin-3-yl)-1-(2-isopropylphenyl)ureido)cyclohexane-1-carboxylic acid]
33 | 10 to 100 nM | CC(C)c1ccccc1N(C(=O)Nc1ccc(Cl)cn1)[C@H]1CC[C@H](C(=O)O)CC1 [Example 297, (1r,4r)-4-(3-(5-chloropyridin-2-yl)-1-(2-isopropylphenyl)ureido)cyclohexane-1-carboxylic acid]
34 | < 10 nM | CC(C)c1ccccc1N(C(=O)Nc1cc(F)c(F)cc1OC(F)F)[C@H]1CC[C@H](C(=O)O)CC1 [Example 298, (1r,4r)-4-(3-(2-(difluoromethoxy)-4,5-difluorophenyl)-1-(2-isopropylphenyl)ureido)cyclohexane-1-carboxylic acid]
35 | < 10 nM | COc1cc(Br)c(F)cc1NC(=O)N(c1ccccc1C(C)C)[C@H]1CC[C@H](C(=O)O)CC1 [Example 299, (1r,4r)-4-(3-(4-bromo-5-fluoro-2-methoxyphenyl)-1-(2-isopropylphenyl)ureido)cyclohexane-1-carboxylic acid]
36 | 100 to 1000 nM | COc1cc(F)c(Cl)cc1NC(=O)N(c1ccccc1C(C)C)[C@H]1CC[C@H](C(=O)O)CC1 [Example 300, (1r,4r)-4-(3-(5-chloro-4-fluoro-2-methoxyphenyl)-1-(2-isopropylphenyl)ureido)cyclohexane-1-carboxylic acid]
37 | 10 to 100 nM | Cc1ccc(NC(=O)N(c2ccccc2C(C)C)[C@H]2CC[C@@H](C(=O)O)C2)c(OC(F)F)n1 [Example 301]
